How the values were obtained:
MT4 [1] = test: Concentration required to achieve 50% protection of MT-4 cells against cytopathic effect of HIV-1; format: functional, cell-based; conditions: Homo sapiens
MT4 [2] = test: Cytotoxic concentration of compound required to reduce the viability of mock-infected MT-4 cells by 50%; format: functional; conditions: Homo sapiens
[3] = Selectivity index is the ratio of CC50/EC50; format: functional
[4] = target: T1, Human immunodeficiency virus type 1 reverse transcriptase (Human immunodeficiency virus 1, UniProt Q72547); test: Inhibitory effect on HIV-1 reverse transcriptase activity using poly(rA)-oligo(dT) template primer
[5] = target: T1, Human immunodeficiency virus type 1 reverse transcriptase; test: Inhibitory effect on HIV-1 reverse transcriptase activity using poly(rC)-oligo(dG) template primer

Row | Structure (SMILES) | EC50 (MT4 [1]) | CC50 (MT4 [2]) | SI [3] | IC50 [4] | IC50 [5]
1 | Nc1ccn([C@H]2CC[C@@H](CO)O2)c(=O)n1 [ZALCITABINE] | 0.3 µM | 40 µM | 133 | – | –
2 | Cc1cn([C@H]2C[C@H](N=[N+]=[N-])[C@@H](CO)O2)c(=O)[nH]c1=O [ZIDOVUDINE] | 0.016 µM | 20 µM | 1250 | – | –
3 | O=c1[nH]c(=O)n(COCCO)c(Sc2ccccc2)c1F | > 100 µM | 288 µM | < 2.9 | – | –
4 | O=c1[nH]c(=O)n(COCCO)c(Sc2ccccc2)c1Cl | > 30 µM | 100 µM | < 3.4 | – | –
5 | O=c1[nH]c(=O)n(COCCO)c(I)c1Cl | > 6 µM | 13 µM | < 2.2 | – | –
6 | Cc1c(Sc2ccccc2)n(COCCO)c(=O)[nH]c1=O [HEPT] | 7 µM | 740 µM | – | > 500 µM | 150 µM
7 | Cc1c(I)n(COCCO)c(=O)[nH]c1=O | > 80 µM | 400 µM | < 5 | – | –
8 | Cc1cn(C2CC(N=[N+]=[N-])C(COP(=O)(O)P(=O)(O)P(=O)(O)O)O2)c(=O)[nH]c1=O (stereo not drawn) | – | – | – | 0.034 µM | –
9 | O=c1[nH]c(=O)n(COCCO)c(I)c1F | > 15 µM | 32 µM | < 2.1 | – | –
10 | Cc1c(Sc2ccccc2)n(COCCOP(=O)(O)P(=O)(O)P(=O)(O)O)c(=O)[nH]c1=O | – | – | – | 280 µM | 500 µM
11 | O=c1cc(I)n(COCCO)c(=O)[nH]1 | > 30 µM | 75 µM | < 2.5 | – | –
12 | O=c1[nH]c(=O)n(COCCO)c(Sc2ccccc2)c1Br | > 20 µM | 44 µM | < 2.2 | – | –
13 | O=c1cc(Sc2ccccc2)n(COCCO)c(=O)[nH]1 | > 500 µM | 1850 µM | < 3.7 | – | –
14 | Nc1ncnc2c1ncn2[C@H]1CC[C@@H](CO)O1 | 6.3 µM | 890 µM | 141 | – | –
15 | O=c1[nH]c(=O)n(COCCO)c(I)c1Br | > 5 µM | 11.5 µM | < 2.3 | – | –

From ChEMBL document CHEMBL1124679, “A novel lead for specific anti-HIV-1 agents: 1-[(2-hydroxyethoxy)methyl]-6-(phenylthio)thymine” (J Med Chem, 1989)
